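Compound exposure: 48 hours, 5 concentrations, 96-well plates. At the GI50, growth is halved.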 Activity calls are given as the source filed them. Rule as the data show it: active = GI50 up to about 1.1 µM and inactive = higher.
Tests used:
Test in all cases: NCI-60 cell line screen, 48 h
[1] = system: U-251
[2] = system: Malme-3M
[3] = system: LOX IMVI
[4] = system: OVCAR-5
[5] = system: K562
[6] = system: MDA-N
[7] = system: RXF 393
[8] = system: SK-MEL-5
[9] = system: COLO 205
[10] = system: UACC-62
[11] = system: SF-295
[12] = system: ACHN
[13] = system: CCRF-CEM
[14] = system: 786-0
[15] = system: OVCAR-8
[16] = system: KM12
[17] = system: A549
[18] = system: HCT-15
[19] = system: UO-31
[20] = system: NCI-H226

Row | SMILES | GI50 [1] | GI50 [2] | GI50 [3] | GI50 [4] | GI50 [5] | GI50 [6] | GI50 [7] | GI50 [8] | GI50 [9] | GI50 [10] | GI50 [11] | GI50 [12] | GI50 [13] | GI50 [14] | GI50 [15] | GI50 [16] | GI50 [17] | GI50 [18] [µM] | GI50 [19] | GI50 [20]
1 | NS(=O)(=O)c1ccc(C(=O)O)cc1 [CARZENIDE] | > 100 µM (inactive) | > 100 µM (inactive) | > 100 µM (inactive) | > 100 µM (inactive) | > 100 µM (inactive) | > 100 µM (inactive) | > 100 µM (inactive) | > 100 µM (inactive) | > 100 µM (inactive) | > 100 µM (inactive) | > 100 µM (inactive) | > 100 µM (inactive) | > 100 µM (inactive) | > 100 µM (inactive) | > 100 µM (inactive) | > 100 µM (inactive) | > 100 µM (inactive) | > 100 | > 100 µM (inactive) | 
2 | O=P1(N(CCCl)CCCl)Oc2ccc(Cl)cc2Sc2c(ccc(Cl)c2Cl)O1 (stereo not given) | 6.76 µM (inactive) |  | 14.6 µM (inactive) | 27.4 µM (inactive) | 3.47 µM (inactive) | 7.91 µM (inactive) | 3.95 µM (inactive) | 5.02 µM (inactive) | 8.18 µM (inactive) | 17.1 µM (inactive) | 3.18 µM (inactive) | 7.41 µM (inactive) | 4.41 µM (inactive) | 8.13 µM (inactive) | 8.71 µM (inactive) | 4.99 µM (inactive) | 3.78 µM (inactive) | 5.18 | 4.71 µM (inactive) | 8.26 µM (inactive)
3 | COC1C(OC(N)=O)C(O)C(Oc2ccc3c(O)c(NC(=O)c4ccc(O)c(CC=C(C)C)c4)c(=O)oc3c2C)OC1(C)C (stereo not given) | 99.5 µM (inactive) | > 100 µM (inactive) |  | > 100 µM (inactive) | > 100 µM (inactive) | > 100 µM (inactive) | > 100 µM (inactive) | > 100 µM (inactive) | > 100 µM (inactive) | 69.2 µM (inactive) |  | > 100 µM (inactive) | 77.8 µM (inactive) | > 100 µM (inactive) | > 100 µM (inactive) | 63 µM (inactive) | > 100 µM (inactive) | 60.5 | > 100 µM (inactive) | 
4 | CCCCCCCCNC(=O)C1=C(C)NC(C)=C(C(=O)NCCCCCCCC)C1 | 94.4 µM (inactive) |  | > 100 µM (inactive) | > 100 µM (inactive) | > 100 µM (inactive) | 89.5 µM (inactive) | > 100 µM (inactive) | > 100 µM (inactive) | > 100 µM (inactive) | > 100 µM (inactive) | > 100 µM (inactive) | 92.7 µM (inactive) | 39.6 µM (inactive) | > 100 µM (inactive) | > 100 µM (inactive) | > 100 µM (inactive) | > 100 µM (inactive) | > 100 | 77.6 µM (inactive) | > 100 µM (inactive)
5 | COc1cc(C(=O)Oc2ccc3c(c2)OCO3)cc(OC)c1OC | > 100 µM (inactive) | > 100 µM (inactive) | > 100 µM (inactive) | > 100 µM (inactive) |  | > 100 µM (inactive) | > 100 µM (inactive) | > 100 µM (inactive) | > 100 µM (inactive) | > 100 µM (inactive) | > 100 µM (inactive) | > 100 µM (inactive) |  | > 100 µM (inactive) | > 100 µM (inactive) | > 100 µM (inactive) | > 100 µM (inactive) | > 100 | > 100 µM (inactive) | > 100 µM (inactive)
6 | COc1ccc(N2C(=O)C3c4[nH]c5cccc(C)c5c4C4CCC(C(C)(C)C)CC4C3C2=O)cc1 (stereo not given) | 9.91 µM (inactive) | > 10 µM (inactive) | 8.3 µM (inactive) | > 10 µM (inactive) | > 10 µM (inactive) | > 10 µM (inactive) | > 10 µM (inactive) | > 10 µM (inactive) | > 10 µM (inactive) | > 10 µM (inactive) | > 10 µM (inactive) | > 10 µM (inactive) |  |  | > 10 µM (inactive) | > 10 µM (inactive) | > 10 µM (inactive) | > 10 | > 10 µM (inactive) | > 10 µM (inactive)
7 | Nc1nc2c(c(-c3ccc(F)cc3)n1)COC/C2=C\c1ccc(F)cc1 | 15.4 µM (inactive) | 12.7 µM (inactive) |  | > 100 µM (inactive) | 35.6 µM (inactive) | > 100 µM (inactive) | 52.7 µM (inactive) | 56 µM (inactive) | > 100 µM (inactive) | 79.4 µM (inactive) | 35.5 µM (inactive) | 55.6 µM (inactive) | 52.5 µM (inactive) |  | 58.2 µM (inactive) | 15.7 µM (inactive) |  | > 100 | 14.7 µM (inactive) | 27.5 µM (inactive)
8 | Cc1cccc(NC(=S)NNC(=O)c2cc(-c3ccccc3)nc3ccccc23)c1 | 30.1 µM (inactive) | 25 µM (inactive) |  | 35.5 µM (inactive) | 41.5 µM (inactive) | 45.7 µM (inactive) | 25.4 µM (inactive) | 19.9 µM (inactive) | 19.5 µM (inactive) | 38.5 µM (inactive) |  | 36.1 µM (inactive) | 12.7 µM (inactive) | 29.7 µM (inactive) | 39.8 µM (inactive) | 31.8 µM (inactive) | 25.4 µM (inactive) | 36.7 | 23.1 µM (inactive) | 34.4 µM (inactive)

— ChEMBL document CHEMBL1201862, “PubChem BioAssay data set” (2004)
